How the values were obtained:
Assay type in all cases: functional
Androgen receptor = biological target: T1, Androgen receptor (Rattus norvegicus, UniProt P15207)
T1 sequence (P15207 whole entry): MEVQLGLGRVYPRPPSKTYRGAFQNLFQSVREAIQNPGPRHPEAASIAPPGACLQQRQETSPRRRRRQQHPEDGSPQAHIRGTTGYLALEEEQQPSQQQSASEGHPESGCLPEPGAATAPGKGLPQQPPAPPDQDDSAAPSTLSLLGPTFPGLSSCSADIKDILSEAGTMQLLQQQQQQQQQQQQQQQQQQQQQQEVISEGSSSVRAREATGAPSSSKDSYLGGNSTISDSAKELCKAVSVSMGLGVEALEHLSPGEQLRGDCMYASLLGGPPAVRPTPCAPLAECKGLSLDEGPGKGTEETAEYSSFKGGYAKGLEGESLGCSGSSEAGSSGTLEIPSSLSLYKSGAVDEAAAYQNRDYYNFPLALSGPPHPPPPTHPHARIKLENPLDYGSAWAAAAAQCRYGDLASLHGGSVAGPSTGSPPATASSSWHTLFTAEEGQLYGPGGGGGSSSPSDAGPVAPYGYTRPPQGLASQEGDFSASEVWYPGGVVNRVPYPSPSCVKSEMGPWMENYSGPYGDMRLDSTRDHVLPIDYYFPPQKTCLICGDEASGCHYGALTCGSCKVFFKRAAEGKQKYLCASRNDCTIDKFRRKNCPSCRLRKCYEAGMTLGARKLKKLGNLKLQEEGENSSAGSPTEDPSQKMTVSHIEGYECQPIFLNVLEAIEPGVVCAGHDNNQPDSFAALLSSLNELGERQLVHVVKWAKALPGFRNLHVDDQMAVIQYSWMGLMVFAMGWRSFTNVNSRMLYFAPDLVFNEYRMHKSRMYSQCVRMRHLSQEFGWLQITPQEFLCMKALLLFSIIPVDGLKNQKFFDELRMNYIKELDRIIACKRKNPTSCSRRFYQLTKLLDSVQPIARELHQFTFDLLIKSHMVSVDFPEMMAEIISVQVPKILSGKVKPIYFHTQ

Estrogen receptor = biological target: T2, Estrogen receptor (Homo sapiens, UniProt P03372)
T2 sequence (P03372 whole entry): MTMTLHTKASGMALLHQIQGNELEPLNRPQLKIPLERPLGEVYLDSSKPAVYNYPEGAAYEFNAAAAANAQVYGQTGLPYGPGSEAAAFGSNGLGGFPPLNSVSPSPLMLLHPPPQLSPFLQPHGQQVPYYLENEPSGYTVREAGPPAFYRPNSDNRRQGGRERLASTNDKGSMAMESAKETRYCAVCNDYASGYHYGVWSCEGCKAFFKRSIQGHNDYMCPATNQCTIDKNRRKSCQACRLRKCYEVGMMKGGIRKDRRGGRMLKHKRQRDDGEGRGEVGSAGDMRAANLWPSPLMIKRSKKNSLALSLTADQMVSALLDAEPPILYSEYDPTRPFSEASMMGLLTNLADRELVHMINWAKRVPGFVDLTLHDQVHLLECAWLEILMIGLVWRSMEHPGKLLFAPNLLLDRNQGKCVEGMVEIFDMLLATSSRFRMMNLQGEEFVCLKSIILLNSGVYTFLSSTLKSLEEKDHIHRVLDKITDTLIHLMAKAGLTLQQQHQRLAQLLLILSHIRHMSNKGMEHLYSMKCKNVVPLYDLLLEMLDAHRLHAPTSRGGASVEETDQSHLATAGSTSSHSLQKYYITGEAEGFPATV

[1] = biological target: Vascular endothelial growth factor receptor 2 (Homo sapiens, UniProt P35968)

Measured: AC50
Note: assay procedure not described here.

Sequence of Vascular endothelial growth factor receptor 2 (P35968 whole entry): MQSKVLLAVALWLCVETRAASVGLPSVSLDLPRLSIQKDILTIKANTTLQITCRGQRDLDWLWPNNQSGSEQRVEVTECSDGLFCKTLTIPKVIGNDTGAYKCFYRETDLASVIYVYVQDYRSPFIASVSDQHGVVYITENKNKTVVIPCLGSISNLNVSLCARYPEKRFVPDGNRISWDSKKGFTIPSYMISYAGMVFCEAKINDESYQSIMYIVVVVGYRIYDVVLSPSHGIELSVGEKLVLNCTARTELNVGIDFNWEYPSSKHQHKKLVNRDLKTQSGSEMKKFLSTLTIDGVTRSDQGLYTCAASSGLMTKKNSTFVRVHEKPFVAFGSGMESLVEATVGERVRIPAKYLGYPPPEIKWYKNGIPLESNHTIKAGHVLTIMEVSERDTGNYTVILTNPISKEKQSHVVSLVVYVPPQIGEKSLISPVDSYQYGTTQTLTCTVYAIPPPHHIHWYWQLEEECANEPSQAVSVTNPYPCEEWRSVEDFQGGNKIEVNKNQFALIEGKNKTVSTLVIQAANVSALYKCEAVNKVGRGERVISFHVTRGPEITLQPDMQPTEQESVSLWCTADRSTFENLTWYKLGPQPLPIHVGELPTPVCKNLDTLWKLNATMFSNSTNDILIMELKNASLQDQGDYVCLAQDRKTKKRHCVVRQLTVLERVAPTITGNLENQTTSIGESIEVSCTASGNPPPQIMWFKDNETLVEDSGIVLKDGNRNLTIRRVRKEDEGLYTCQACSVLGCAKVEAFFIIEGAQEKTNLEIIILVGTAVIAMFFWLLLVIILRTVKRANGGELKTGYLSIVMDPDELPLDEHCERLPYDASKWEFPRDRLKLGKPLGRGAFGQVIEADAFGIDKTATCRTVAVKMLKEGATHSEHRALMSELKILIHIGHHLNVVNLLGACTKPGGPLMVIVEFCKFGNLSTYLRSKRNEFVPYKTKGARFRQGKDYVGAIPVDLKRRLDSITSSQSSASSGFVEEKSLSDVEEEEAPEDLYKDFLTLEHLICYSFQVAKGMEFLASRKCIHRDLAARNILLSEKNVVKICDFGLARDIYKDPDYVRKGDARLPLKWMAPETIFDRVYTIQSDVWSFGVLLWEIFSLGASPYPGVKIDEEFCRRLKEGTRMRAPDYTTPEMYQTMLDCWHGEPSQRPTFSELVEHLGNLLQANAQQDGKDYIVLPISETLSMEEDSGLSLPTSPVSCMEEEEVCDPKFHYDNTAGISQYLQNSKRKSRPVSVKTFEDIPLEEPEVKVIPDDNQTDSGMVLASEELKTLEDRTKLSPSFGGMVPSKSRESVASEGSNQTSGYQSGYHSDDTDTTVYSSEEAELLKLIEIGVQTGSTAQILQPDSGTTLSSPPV

CO/N=C(\C(=O)N[C@@H]1C(=O)N2C(C(=O)[O-])=C(C[N+]3(C)CCCC3)CS[C@H]12)c1csc(N)n1
> 300 µM: all assays above

Reference: ChEMBL document CHEMBL5291721, “A preclinical secondary pharmacology resource illuminates target-adverse drug reaction associations of marketed drugs” (Nat Commun, 2023)
